This note sets out measurements from ChEMBL document CHEMBL1141731, “Bioactive pyridoacridine alkaloids from the micronesian sponge Oceanapia sp” (J Nat Prod, 1998).

Structures are written as SMILES. In brackets after ≈: the same amount, converted by molar mass. Activity calls are given as the source filed them. The rule behind the calls is not given here.

In data set [1] the target is T1, Adenosine receptor A1 (Rattus norvegicus) (UniProt P25099).
T1 sequence (whole entry): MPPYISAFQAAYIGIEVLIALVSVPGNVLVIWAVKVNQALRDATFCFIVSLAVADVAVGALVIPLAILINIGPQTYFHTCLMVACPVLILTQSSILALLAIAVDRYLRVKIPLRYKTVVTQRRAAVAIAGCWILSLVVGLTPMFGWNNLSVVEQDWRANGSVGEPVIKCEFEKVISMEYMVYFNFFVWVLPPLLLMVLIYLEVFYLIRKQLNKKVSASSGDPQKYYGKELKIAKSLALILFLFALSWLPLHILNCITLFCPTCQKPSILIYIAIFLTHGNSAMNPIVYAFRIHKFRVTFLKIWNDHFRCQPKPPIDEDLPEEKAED
As to the kind of experiment: Displacement of [3H]CHA from adenosine A1 receptor in rat brain cortical membrane at 100 uM. It counts as cell membranes. Background: Loss of bound radioactivity is the signal in a displacement assay; it reports binding, not function.

Another data set has as its system Artemia salina. As to the kind of experiment: Toxicity against Artemia salina at upto 100 ug/mL after 24 hrs. The format is organism-based. To be noted: in vivo.
Another data set deals with Cladosporium cucumerinum. As to the kind of experiment: Fungicidal activity against Cladosporium cucumerinum. The format is functional, organism-based.
A further data set has as its system Bacillus subtilis. Briefly: Antimicrobial activities activity against Bacillus subtilis 168 at 100ug/disk after 24 hrs by agar plate diffusion assay. It counts as functional, organism-based. As to conditions: subsp. subtilis str. 168.
The test system of the next data set is Spodoptera littoralis. Briefly: Insecticidal activity against Spodoptera littoralis larvae with artificial diet assessed survival after 6 days. The format is functional. As to conditions: 144 h.
The subject of the next data set is HeLa. As to the kind of experiment: Cytotoxicity against human HeLa cells assessed as incorporation of [3H]thymidine incorporation. The format is functional, cell-based. Background: Dividing cells build labelled thymidine or BrdU into new DNA.
For a further data set, the system named is MONO-MAC-6. Briefly: Cytotoxicity against human MONO-MAC-6 cells assessed as incorporation of [3H]thymidine incorporation. It counts as functional, cell-based.
For data set [2], the species on record is Rattus norvegicus. Briefly: Displacement of [3H]diazepam from benzodiazepine binding site of GABAA receptor in rat brain cortical membrane at 25 uM. The format is cell membranes.
The species named for data set [3] is Rattus norvegicus. Briefly: (§1) Displacement of [3H]diazepam from benzodiazepine binding site of GABAA receptor in rat brain cortical membrane. It counts as cell membranes.
The subject of the next data set is Escherichia coli. Briefly: Antimicrobial activities activity against Escherichia coli ATCC 25922 at 100ug/disk after 24 hrs by agar plate diffusion assay. It counts as functional, organism-based.
Data set [4] addresses Adenosine receptor A2a (Rattus norvegicus) (UniProt P30543). Briefly: Displacement of [3H]CGS21680 from adenosine A2A receptor in rat brain striatal membrane at 100 uM. The format is cell membranes.
A further data set has as its target T2, Adenosine receptor A1 (Rattus norvegicus, UniProt P25099).
T2 sequence (P25099 whole entry): T1 sequence (whole entry)
Briefly: Displacement of [3H]CHA from adenosine A1 receptor in rat brain cortical membrane. The format is cell membranes.

Data set [5] in a line: Toxicity against Artemia salina after 24 hrs. As to conditions: in vivo. It counts as organism-based.
The target of data set [6] is T1, Adenosine receptor A1 (Rattus norvegicus). As to the kind of experiment: Displacement of [3H]CHA from adenosine A1 receptor in rat brain cortical membrane at 25 uM. It counts as cell membranes.
The target in another data set is Adenosine receptor A2a (Rattus norvegicus, UniProt P30543). Briefly: Displacement of [3H]CGS21680 from adenosine A2A receptor in rat brain striatal membrane. It counts as cell membranes.
Sequence of Adenosine receptor A2a (P30543 whole entry): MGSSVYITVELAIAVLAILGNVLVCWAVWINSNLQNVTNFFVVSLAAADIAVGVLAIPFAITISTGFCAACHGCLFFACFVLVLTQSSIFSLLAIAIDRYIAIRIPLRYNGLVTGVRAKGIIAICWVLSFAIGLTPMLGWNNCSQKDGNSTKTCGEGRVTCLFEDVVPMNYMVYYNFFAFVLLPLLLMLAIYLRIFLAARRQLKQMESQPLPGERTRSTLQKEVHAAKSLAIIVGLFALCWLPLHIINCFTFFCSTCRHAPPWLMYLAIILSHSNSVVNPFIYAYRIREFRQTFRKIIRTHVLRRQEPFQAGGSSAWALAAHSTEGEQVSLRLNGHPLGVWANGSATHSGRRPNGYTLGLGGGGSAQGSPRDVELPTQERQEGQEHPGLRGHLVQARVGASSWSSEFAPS
Data set [7] deals with Adenosine receptor A2a (Rattus norvegicus) (UniProt P30543). As to the kind of experiment: Displacement of [3H]CGS21680 from adenosine A2A receptor in rat brain striatal membrane at 25 uM. It counts as cell membranes.
Sequence of Adenosine receptor A2a (Rattus norvegicus) (P30543 whole entry): as above
Data set [8] is described as follows: as §1. It counts as cell membranes.

In general, IC50 refers to the midpoint of a concentration-inhibition curve. `NCCc1c2c3c(ccnc3c3ncsc13)-c1ccccc1N2`: the Activity in data set [1] was 36%; in the data set with Artemia salina, “Non-toxic”; in the data set filed under Rattus norvegicus [2], 30%; in data set [4], 46%. Further, the outcome in the data set on Cladosporium cucumerinum, in the data set on Bacillus subtilis and with Escherichia coli was inactive. For the same compound, the EC50 in the data set on Spodoptera littoralis (read-out: ED50 (the source's name)) came to 141 µg/mL (≈ 443 µM). Also, the IC50 turned out to be 1.2 µg/mL (≈ 3.77 µM) in the data set on HeLa and 2 µg/mL (≈ 6.28 µM) with MONO-MAC-6. Also, in the data set filed under Rattus norvegicus [3], the result was Active.

By Ki is commonly meant the equilibrium dissociation constant of an inhibitor or competing ligand from its target. What is called LC50 is the concentration lethal to half of the exposed cells or organisms. Low readings indicate a more lethal substance, high ones a less lethal substance. Consider `CC(=O)NCCc1c2c3c(ccnc3c3ncsc13)-c1ccccc1N2` [KUANONIAMINE D], for which the results for the Ki on Adenosine receptor A1 and at Adenosine receptor A2a were 2.94 µM and 13.7 µM, respectively. The compound also returned an LC50 at 24 h in data set [5] of 19 µg/mL (≈ 52.7 µM). The results for the Activity (in data set [6]; in [7]; in the data set filed under Rattus norvegicus [2]) were 68%, 56% and 32%, respectively. Moreover, the outcome in the data set on Cladosporium cucumerinum, in the data set with Bacillus subtilis and in the data set with Escherichia coli was inactive. This compound also yielded an LC50 with Spodoptera littoralis of 59 µg/mL (≈ 164 µM). Besides, the IC50 was determined as 1.4 µg/mL (≈ 3.88 µM) in the data set with HeLa and 0.8 µg/mL (≈ 2.22 µM) with MONO-MAC-6. In addition, the result in the data set listed under Rattus norvegicus [3] was Active.

Regarding `CCC(=O)NCCc1c2c3c(ccnc3c3ncsc13)-c1ccccc1N2` [KUANONIAMINE C], in data set [5], the LC50 at 24 h stood at 37 µg/mL (≈ 98.8 µM). The results for the Activity (in data set [6]; in data set [7]; in the data set listed under Rattus norvegicus [2]) were 34%, 43% and 39%, respectively. In addition, the outcome in the data set with Cladosporium cucumerinum, with Bacillus subtilis and in the data set with Escherichia coli was inactive. For the same compound, the LC50 in the data set with Spodoptera littoralis amounted to 156 µg/mL (≈ 417 µM). Also, the IC50 with HeLa was 5.1 µg/mL (≈ 13.6 µM); in the data set on MONO-MAC-6, 1.2 µg/mL (≈ 3.2 µM). Further, in the data set filed under Rattus norvegicus [3], the result was Active.

Turning to `Cn1c(=O)c2c(ncn2C)n(C)c1=O` [CAFFEINE], in [8], the affinity, expressed as Ki, was 376 µM.
